From ChEMBL document CHEMBL1201862, “PubChem BioAssay data set” (2004)
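Assay format: 96-well plates, 48-hour exposure. GI50 marks 50% less growth.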 Activity calls are given as the source filed them. Cut-off read from the data, not from the text of the source: active = GI50 up to about 1.1 µM and inactive = higher.

Legend:
Assay in all cases: NCI anticancer screen, dose series, 48 h
A498 = test system: A498
A549 = test system: A549
ACHN = test system: ACHN
BT-549 = test system: BT-549
CAKI-1 = test system: CAKI-1
COLO 205 = test system: COLO 205
DU-145 = test system: DU-145
EKVX = test system: EKVX
HCC 2998 = test system: HCC 2998
HCT-15 = test system: HCT-15
HL-60 = test system: HL-60
HOP-62 = test system: HOP-62
HOP-92 = test system: HOP-92
HT-29 = test system: HT-29
Hs-578T = test system: Hs-578T
IGROV-1 = test system: IGROV-1
K562 = test system: K562
KM12 = test system: KM12
LOX IMVI = test system: LOX IMVI
M14 = test system: M14
MCF7 = test system: MCF7
MDA-MB-231 = test system: MDA-MB-231
MDA-MB-435 = test system: MDA-MB-435
MOLT-4 = test system: MOLT-4
Malme-3M = test system: Malme-3M
NCI-H226 = test system: NCI-H226
NCI-H23 = test system: NCI-H23
NCI-H460 = test system: NCI-H460
NCI-H522 = test system: NCI-H522
NCI/ADR-RES = test system: NCI/ADR-RES
OVCAR-3 = test system: OVCAR-3
OVCAR-4 = test system: OVCAR-4
OVCAR-5 = test system: OVCAR-5
OVCAR-8 = test system: OVCAR-8
PC-3 = test system: PC-3
RPMI-8226 = test system: RPMI-8226
RXF 393 = test system: RXF 393
SF-268 = test system: SF-268
SF-295 = test system: SF-295
SK-MEL-28 = test system: SK-MEL-28
SK-MEL-2 = test system: SK-MEL-2
SK-MEL-5 = test system: SK-MEL-5
SK-OV-3 = test system: SK-OV-3
SNB-19 = test system: SNB-19
SNB-75 = test system: SNB-75
SW-620 = test system: SW-620
T47D = test system: T47D
TK-10 = test system: TK-10
U-251 = test system: U-251
UACC-257 = test system: UACC-257
UACC-62 = test system: UACC-62
UO-31 = test system: UO-31
786-0 = test system: 786-0
CCRF-CEM = test system: CCRF-CEM
HCT-116 = test system: HCT-116
SF-539 = test system: SF-539
SN12C = test system: SN12C
SR = test system: SR

SMILES: COP(=O)(OC)[C@H](O)[C@H]1C[C@@H]1c1ccccc1
- GI50 (A498): > 100 µM (inactive)
- GI50 (A549): > 100 µM (inactive)
- GI50 (ACHN): > 100 µM (inactive)
- GI50 (BT-549): > 100 µM (inactive)
- GI50 (CAKI-1): > 100 µM (inactive)
- GI50 (COLO 205): > 100 µM (inactive)
- GI50 (DU-145): > 100 µM (inactive)
- GI50 (EKVX): > 100 µM (inactive)
- GI50 (HCC 2998): > 100 µM (inactive)
- GI50 (HCT-15): > 100 µM
- GI50 (HL-60): > 100 µM (inactive)
- GI50 (HOP-62): > 100 µM (inactive)
- GI50 (HOP-92): 17.4 µM (inactive)
- GI50 (HT-29): > 100 µM (inactive)
- GI50 (Hs-578T): 18.9 µM (inactive)
- GI50 (IGROV-1): > 100 µM (inactive)
- GI50 (K562): > 100 µM (inactive)
- GI50 (KM12): > 100 µM (inactive)
- GI50 (LOX IMVI): > 100 µM (inactive)
- GI50 (M14): > 100 µM (inactive)
- GI50 (MCF7): > 100 µM (inactive)
- GI50 (MDA-MB-231): > 100 µM (inactive)
- GI50 (MDA-MB-435): > 100 µM (inactive)
- GI50 (MOLT-4): > 100 µM (inactive)
- GI50 (Malme-3M): > 100 µM (inactive)
- GI50 (NCI-H226): > 100 µM (inactive)
- GI50 (NCI-H23): > 100 µM (inactive)
- GI50 (NCI-H460): > 100 µM (inactive)
- GI50 (NCI-H522): > 100 µM (inactive)
- GI50 (NCI/ADR-RES): > 100 µM (inactive)
- GI50 (OVCAR-3): > 100 µM (inactive)
- GI50 (OVCAR-4): > 100 µM (inactive)
- GI50 (OVCAR-5): > 100 µM (inactive)
- GI50 (OVCAR-8): > 100 µM (inactive)
- GI50 (PC-3): > 100 µM (inactive)
- GI50 (RPMI-8226): > 100 µM (inactive)
- GI50 (RXF 393): > 100 µM (inactive)
- GI50 (SF-268): > 100 µM (inactive)
- GI50 (SF-295): > 100 µM (inactive)
- GI50 (SK-MEL-28): > 100 µM (inactive)
- GI50 (SK-MEL-2): > 100 µM (inactive)
- GI50 (SK-MEL-5): > 100 µM (inactive)
- GI50 (SK-OV-3): > 100 µM (inactive)
- GI50 (SNB-19): > 100 µM (inactive)
- GI50 (SNB-75): > 100 µM (inactive)
- GI50 (SW-620): > 100 µM (inactive)
- GI50 (T47D): > 100 µM (inactive)
- GI50 (TK-10): > 100 µM (inactive)
- GI50 (U-251): > 100 µM (inactive)
- GI50 (UACC-257): > 100 µM (inactive)
- GI50 (UACC-62): > 100 µM (inactive)
- GI50 (UO-31): > 100 µM (inactive)

SMILES: COc1ccc(CC(C)NCC(O)c2ccc(O)c(NC=O)c2)cc1 (configuration not stated)
- GI50 (786-0): > 100 µM (inactive)
- GI50 (A498): > 100 µM (inactive)
- GI50 (A549): > 100 µM (inactive)
- GI50 (ACHN): > 100 µM (inactive)
- GI50 (BT-549): > 100 µM (inactive)
- GI50 (CAKI-1): 42.2 µM (inactive)
- GI50 (CCRF-CEM): > 100 µM (inactive)
- GI50 (COLO 205): > 100 µM (inactive)
- GI50 (DU-145): > 100 µM (inactive)
- GI50 (EKVX): > 100 µM (inactive)
- GI50 (HCT-116): 43.4 µM (inactive)
- GI50 (HCT-15): > 100 µM
- GI50 (HOP-62): > 100 µM (inactive)
- GI50 (HT-29): 86.7 µM (inactive)
- GI50 (Hs-578T): > 100 µM (inactive)
- GI50 (IGROV-1): > 100 µM (inactive)
- GI50 (K562): > 100 µM (inactive)
- GI50 (KM12): > 100 µM (inactive)
- GI50 (LOX IMVI): > 100 µM (inactive)
- GI50 (M14): > 100 µM (inactive)
- GI50 (MCF7): > 100 µM (inactive)
- GI50 (MDA-MB-231): < 0.01 µM (active)
- GI50 (MDA-MB-435): > 100 µM (inactive)
- GI50 (MOLT-4): > 100 µM (inactive)
- GI50 (Malme-3M): > 100 µM (inactive)
- GI50 (NCI-H226): > 100 µM (inactive)
- GI50 (NCI-H23): > 100 µM (inactive)
- GI50 (NCI-H460): > 100 µM (inactive)
- GI50 (NCI-H522): > 100 µM (inactive)
- GI50 (NCI/ADR-RES): > 100 µM (inactive)
- GI50 (OVCAR-3): > 100 µM (inactive)
- GI50 (OVCAR-4): > 100 µM (inactive)
- GI50 (OVCAR-5): > 100 µM (inactive)
- GI50 (OVCAR-8): > 100 µM (inactive)
- GI50 (PC-3): > 100 µM (inactive)
- GI50 (RPMI-8226): > 100 µM (inactive)
- GI50 (RXF 393): > 100 µM (inactive)
- GI50 (SF-268): > 100 µM (inactive)
- GI50 (SF-295): 33.9 µM (inactive)
- GI50 (SF-539): > 100 µM (inactive)
- GI50 (SK-MEL-28): > 100 µM (inactive)
- GI50 (SK-MEL-2): > 100 µM (inactive)
- GI50 (SK-MEL-5): > 100 µM (inactive)
- GI50 (SK-OV-3): > 100 µM (inactive)
- GI50 (SN12C): 20.1 µM (inactive)
- GI50 (SNB-19): > 100 µM (inactive)
- GI50 (SNB-75): > 100 µM (inactive)
- GI50 (SR): > 100 µM (inactive)
- GI50 (SW-620): > 100 µM (inactive)
- GI50 (T47D): > 100 µM (inactive)
- GI50 (TK-10): > 100 µM (inactive)
- GI50 (U-251): > 100 µM (inactive)
- GI50 (UACC-257): > 100 µM (inactive)
- GI50 (UACC-62): > 100 µM (inactive)
- GI50 (UO-31): > 100 µM (inactive)

SMILES: COc1cc(OCc2nc3cc(C(F)(F)F)ccc3nc2-c2ccccc2)cc(OC)c1OC
- GI50 (786-0): 96.2 µM (inactive)
- GI50 (A498): > 100 µM (inactive)
- GI50 (A549): 36.9 µM (inactive)
- GI50 (ACHN): > 100 µM (inactive)
- GI50 (BT-549): > 100 µM (inactive)
- GI50 (CAKI-1): > 100 µM (inactive)
- GI50 (CCRF-CEM): > 100 µM (inactive)
- GI50 (COLO 205): > 100 µM (inactive)
- GI50 (DU-145): 86.9 µM (inactive)
- GI50 (EKVX): 91.4 µM (inactive)
- GI50 (HCC 2998): > 100 µM (inactive)
- GI50 (HCT-116): 94 µM (inactive)
- GI50 (HCT-15): > 100 µM
- GI50 (HL-60): > 100 µM (inactive)
- GI50 (HOP-92): > 100 µM (inactive)
- GI50 (HT-29): > 100 µM (inactive)
- GI50 (Hs-578T): 55.6 µM (inactive)
- GI50 (IGROV-1): > 100 µM (inactive)
- GI50 (K562): 61.9 µM (inactive)
- GI50 (KM12): > 100 µM (inactive)
- GI50 (LOX IMVI): > 100 µM (inactive)
- GI50 (M14): 45.4 µM (inactive)
- GI50 (MCF7): 56.4 µM (inactive)
- GI50 (MDA-MB-231): > 100 µM (inactive)
- GI50 (MDA-MB-435): > 100 µM (inactive)
- GI50 (MOLT-4): 8.75 µM (inactive)
- GI50 (Malme-3M): > 100 µM (inactive)
- GI50 (NCI-H226): > 100 µM (inactive)
- GI50 (NCI-H23): 87.3 µM (inactive)
- GI50 (NCI-H460): > 100 µM (inactive)
- GI50 (NCI/ADR-RES): 61.2 µM (inactive)
- GI50 (OVCAR-3): > 100 µM (inactive)
- GI50 (OVCAR-4): 95.3 µM (inactive)
- GI50 (OVCAR-5): > 100 µM (inactive)
- GI50 (OVCAR-8): 64.3 µM (inactive)
- GI50 (PC-3): 98.9 µM (inactive)
- GI50 (RPMI-8226): 15.5 µM (inactive)
- GI50 (RXF 393): 19.5 µM (inactive)
- GI50 (SF-268): > 100 µM (inactive)
- GI50 (SF-295): 47.3 µM (inactive)
- GI50 (SF-539): 45.8 µM (inactive)
- GI50 (SK-MEL-28): 65.3 µM (inactive)
- GI50 (SK-MEL-2): > 100 µM (inactive)
- GI50 (SK-MEL-5): 17.1 µM (inactive)
- GI50 (SK-OV-3): > 100 µM (inactive)
- GI50 (SNB-19): 94.6 µM (inactive)
- GI50 (SNB-75): 98.9 µM (inactive)
- GI50 (SR): 81.5 µM (inactive)
- GI50 (SW-620): > 100 µM (inactive)
- GI50 (T47D): 11.9 µM (inactive)
- GI50 (TK-10): 70.3 µM (inactive)
- GI50 (U-251): 39.6 µM (inactive)
- GI50 (UACC-257): > 100 µM (inactive)
- GI50 (UACC-62): 61.4 µM (inactive)
- GI50 (UO-31): > 100 µM (inactive)
